According to patent publication US8796457B2, “Compound useful for the treatment of degenerative and inflammatory diseases” (Galapagos NV, priority 2009, dated 2014):

Legend:
[1] = Microsomal stability, rat; assay type: in vitro ADME; conditions: rat liver microsomes, 3 μM compound, 37° C.
Experimental: A 10 mM stock solution of compound in DMSO was diluted 1000 fold in a 182 mM phosphate buffer pH7.4 in a 96 deep well plate (Greiner, Cat no. 780285) and pre-incubated at 37° C.
40 μL of deionised water was added to a well of a polypropylene Matrix 2D barcode labelled storage tube (Thermo Scientific) and pre-incubated at 37° C.
A Glucose-6-phophate-dehydrogenase (G6PDH) working stock solution was prepared in 182 mM phosphate buffer pH7.4 and placed on ice before use. A co-factor containing MgCl2, glucose-6-phosphate and NADP+ was prepared in deionised water and placed on ice before use. […]
These plates were sealed with sealing mats (MA96RD-04S) of www.kinesis.co.uk and samples were measured at room temperature on LCMS (ZQ 1525 from Waters) under optimized conditions using Quanoptimize to determine the appropriate mass of the parent molecule.
The samples were analyzed on LCMS with a flow rate of 1 mL/min. […]
Peak area from the parent compound at time 0 was considered to be 100% remaining. The percentage remaining after 1 hour incubation was calculated from time 0 and was calculated as the percentage remaining. […]
The data on microsomal stability are expressed as a percentage of the total amount of compound remaining after 60 minutes.

[2] = Caco2 permeability (bi-directional); assay type: in vitro ADME; conditions: human, pH 7.4
Experimental: Bi-directional Caco-2 assays were performed as described below. Caco-2 cells were obtained from European Collection of Cell Cultures (ECACC, cat 86010202) and used after a 21 day cell culture in 24-well Transwell plates (Fisher TKT-545-020B).
2×10^5 cells/well were seeded in plating medium consisting of DMEM+GlutaMAXI+1% NEAA+10% FBS (FetalClone II)+1% Pen/Strep. The medium was changed every 2-3 days.
Test and reference compounds (propranolol and rhodamine123 or vinblastine, all purchased from Sigma) were prepared in Hanks' Balanced Salt Solution containing 25 mM HEPES (pH7.4) and added to either the apical (125 μL) or basolateral (600 μL) chambers of the Transwell plate assembly at a concentration of 10 μM with a final DMSO concentration of 0.25%.
50μM Lucifer Yellow (Sigma) was added to the donor buffer in all wells to assess integrity of the cell layers by monitoring Lucifer Yellow permeation. […]
Lucifer yellow was measured with a Spectramax Gemini XS (Ex 426 nm and Em 538 nm) in a clean 96 well plate containing 150 μL of liquid from basolateral and apical side.
Concentrations of compound in the samples were measured by high performance liquid-chromatography/mass spectroscopy (LC-MS/MS).
The Efflux ratios, as an indication of active efflux from the apical cell surface, were calculated using the ratio of PappB>A/Papp A>B.

CC1(C)CN(C(=O)c2ccc(-c3cccc4nc(NC(=O)C5CC5)nn34)cc2)C1 [Compound 1, Cyclopropanecarboxylic acid{5-[4-(3,3-dimethyl-azetidine-1-carbonyl)-phenyl]-[1,2,4]triazolo[1,5-a]pyridin-2-yl}-amide]
Microsomal stability, percentage of compound remaining after 60 minutes, Rat [1]: 76-100%
Papp at 1 h, 10 μM ([2]; Caco-2, 10 μM, 1 hour, pH7.4): 7.8 ± 0.8 ×10⁻⁶ cm/s
efflux ratio at 1 h, 10 μM ([2]; Caco-2, Papp B>A / Papp A>B): 6.1 ± 0.6
